For data set [1] the following is noted: DTA; for Normal melting temperature: Crystal 1.
The nature of data set [2]: Molar enthalpy of transition or fusion. To be noted: DSC.

Numbers after ± are expanded uncertainties.

`CCCCCCCCCCCC(=O)[O-].[K+]` [dodecanoic acid, potassium salt]: in data set [1], the Normal melting temperature was determined as 399 ± 0.5 °C. Besides, the Triple point temperature in data set [1] (Crystal 2) was 543.4 ± 0.5 K; in data set [1] (Crystal 3), 489 ± 1 K; in data set [1] (Crystal 4), 405.5 ± 0.5 K; in data set [1] (Crystal 5), 328.1 ± 0.5 K. Besides, the “Molar enthalpy of transition or fusion” value in data set [2] (Crystal 1) was 0.342 ± 0.0574 kcal/mol; in data set [2] (Crystal 2), 2.79 ± 0.115 kcal/mol; in data set [2] (Crystal 3), 1.31 ± 0.0574 kcal/mol; in data set [2] (Crystal 4), 2.28 ± 0.115 kcal/mol; in data set [2] (Crystal 5) it was 2.96 ± 0.115 kcal/mol.

As for `CCCC(=O)[O-].[K+]` [potassium butanoate], the Normal melting temperature in data set [1] stood at 394 ± 0.5 °C. The Triple point temperature in data set [1] (Crystal 2) was 623.1 ± 0.5 K; in data set [1] (Crystal 3), 550 ± 1 K; in data set [1] (Crystal 4), 454.7 ± 0.5 K. In addition, the “Molar enthalpy of transition or fusion” value in data set [2] (Crystal 1) stood at 1.18 ± 0.0598 kcal/mol; in data set [2] (Crystal 2), 2.56 ± 0.0908 kcal/mol; in data set [2] (Crystal 3), 0.814 ± 0.0598 kcal/mol; in data set [2] (Crystal 4), 0.166 ± 0.0311 kcal/mol.

As for `CCCCCCCCCC(=O)[O-].[K+]` [potassium decanoate], the Normal melting temperature in data set [1] was determined as 418.4 ± 0.5 °C. Further, the Triple point temperature in data set [1] (Crystal 2) is recorded as 546.5 ± 0.5 K; in data set [1] (Crystal 3), 528 ± 1 K; in data set [1] (Crystal 4), 383 ± 1 K; in data set [1] (Crystal 5), 346.3 ± 0.5 K. Also, the results for the “Molar enthalpy of transition or fusion” value in data set [2] (Crystal 1), in data set [2] (Crystal 4) and in data set [2] (Crystal 5) were 0.402 ± 0.0502 kcal/mol, 0.855 ± 0.0502 kcal/mol and 1.36 ± 0.1 kcal/mol, respectively.

In the case of `CC(=O)[O-].[K+]` [potassium ethanoate], the Normal melting temperature in data set [1] stood at 305.5 ± 0.5 °C. Moreover, the Triple point temperature was found to be 425 ± 1 K in data set [1] (Crystal 2) and 331.8 ± 0.5 K in data set [1] (Crystal 3). Also, the “Molar enthalpy of transition or fusion” value in data set [2] (Crystal 1) came out at 3.92 ± 0.117 kcal/mol; in data set [2] (Crystal 2) it was 0.0704 ± 0.0234 kcal/mol; in data set [2] (Crystal 3), 0.0164 ± 0.0234 kcal/mol.

With `O=C[O-].[K+]` [potassium formate], in data set [1], the Normal melting temperature is 169.1 ± 0.5 °C. For the same compound, the Triple point temperature in data set [1] (Crystal 2) was found to be 415.8 ± 0.5 K. Moreover, the “Molar enthalpy of transition or fusion” value in data set [2] (Crystal 1) was 2.79 ± 0.1 kcal/mol; in data set [2] (Crystal 2), 0.137 ± 0.0311 kcal/mol.

For the compound `CCCCCCC(=O)[O-].[K+]` [potassium heptanoate], the Normal melting temperature in data set [1] turned out to be 449 ± 1 °C. Moreover, the Triple point temperature in data set [1] (Crystal 2) is given as 571 ± 0.5 K; in data set [1] (Crystal 3) it was 333.7 ± 0.5 K. In addition, the results for the “Molar enthalpy of transition or fusion” value in data set [2] (Crystal 1), in data set [2] (Crystal 2) and in data set [2] (Crystal 3) were 0.804 ± 0.0813 kcal/mol, 4.22 ± 0.12 kcal/mol and 3.14 ± 0.12 kcal/mol, respectively.

On to `CCCCCC(=O)[O-].[K+]` [potassium hexanoate], for which the Normal melting temperature in data set [1] stood at 450.5 ± 0.8 °C. In addition, the Triple point temperature in data set [1] (Crystal 2) amounted to 582.4 ± 0.5 K. Besides, the entries for the “Molar enthalpy of transition or fusion” value in data set [2] (Crystal 1) and in data set [2] (Crystal 2) were 0.922 ± 0.0359 kcal/mol and 3.98 ± 0.11 kcal/mol, respectively.

For `CCCCCCCCC(=O)[O-].[K+]` [potassium nonanoate], the Normal melting temperature in data set [1] is 431.4 ± 0.5 °C. In addition, the Triple point temperature in data set [1] (Crystal 2) is 544.9 ± 0.5 K; in data set [1] (Crystal 3) it was 367.6 ± 0.5 K. The “Molar enthalpy of transition or fusion” value in data set [2] (Crystal 1) amounted to 0.469 ± 0.0478 kcal/mol; in data set [2] (Crystal 2), 3.47 ± 0.141 kcal/mol; in data set [2] (Crystal 3), 3.75 ± 0.141 kcal/mol.

`CCCCCCCC(=O)[O-].[K+]` [potassium octanoate]: the Normal melting temperature in data set [1] amounted to 435.5 ± 0.5 °C. For the same compound, the Triple point temperature in data set [1] (Crystal 2) stood at 562.8 ± 0.5 K; in data set [1] (Crystal 3), 327.8 ± 0.5 K. For the same compound, the “Molar enthalpy of transition or fusion” value in data set [2] (Crystal 1) stood at 0.523 ± 0.043 kcal/mol; in data set [2] (Crystal 2), 4.01 ± 0.131 kcal/mol; in data set [2] (Crystal 3), 2.4 ± 0.086 kcal/mol.

Regarding `CCCCC(=O)[O-].[K+]` [potassium pentanoate], the Normal melting temperature in data set [1] is 443.6 ± 0.5 °C. Further, the Triple point temperature in data set [1] (Crystal 2) was determined as 585.4 ± 0.5 K; in data set [1] (Crystal 3) it was 397.6 ± 0.5 K. For the same compound, the “Molar enthalpy of transition or fusion” value in data set [2] (Crystal 1) worked out at 1.14 ± 0.0669 kcal/mol; in data set [2] (Crystal 2), 4.16 ± 0.134 kcal/mol; in data set [2] (Crystal 3), 0.0938 ± 0.0311 kcal/mol.

Turning to `CCC(=O)[O-].[K+]` [potassium propanoate], the Normal melting temperature in data set [1] came out at 363.8 ± 0.5 °C. The Triple point temperature in data set [1] (Crystal 2) amounted to 352.1 ± 0.5 K. For the same compound, the “Molar enthalpy of transition or fusion” value in data set [2] (Crystal 1) came to 4.88 ± 0.134 kcal/mol; in data set [2] (Crystal 2) it was 0.429 ± 0.0263 kcal/mol.

Turning to `CCCCCCCCCCC(=O)[O-].[K+]` [potassium undecanoate], the Normal melting temperature in data set [1] came to 407.6 ± 0.5 °C. Moreover, the results for the Triple point temperature in data set [1] (Crystal 2), in data set [1] (Crystal 3) and in data set [1] (Crystal 4) were 542.5 ± 0.5 K, 410 ± 1 K and 354.6 ± 0.5 K, respectively. Moreover, the “Molar enthalpy of transition or fusion” value in data set [2] (Crystal 1) was found to be 0.375 ± 0.0526 kcal/mol; in data set [2] (Crystal 2) it was 2.9 ± 0.108 kcal/mol; in data set [2] (Crystal 3), 2.15 ± 0.108 kcal/mol; in data set [2] (Crystal 4) it was 2.95 ± 0.108 kcal/mol.

The values above are taken from the NIST ThermoML archive (doi:10.1021/je400874d).
